Test results as given in US20250319025A9, “COMPOSITIONS COMPRISING MODIFIED PHOSPHOLIPIDS AND USES THEREOF” (priority 2021, published 2025).
Where “and” joins values, the source holds several entries; their conditions need not be identical. Identical values can stand only once. Counter-ions that a name gives are not always drawn. Like-named read-outs stand apart in the source and are kept apart here.

What was measured:
[1] = Phase transition temperature of acyl chain-modified phospholipids; assay type: physicochemical
physchem = conditions: pH 4
[2] = In vitro cumulative drug release by dialysis at 37° C.; assay type: physicochemical
[3] = Drug loading of payloads in liposomes (thin-film hydration; quantitated after liposome disruption); assay type: physicochemical
[4] = tested on: PC12 rat adrenal gland pheochromocytoma cells
[5] = pH 7.4
sciatic nerve [6] = conditions: rat, in vivo
sciatic nerve [7] = test: Motor nerve block, weight-bearing test; conditions: rat, in vivo
Description: Motor nerve block was assessed by a weight-bearing test to determine the motor strength of the rat's hind paw. The rat was positioned with one hind paw on a digital balance and was allowed to bear its own weight. The maximum weight that the rat could bear without the ankle touching the balance was recorded, and motor block was considered achieved when the motor strength was less than half maximal. Measurements were repeated three times at each time point and the median was used for further data analysis.
Duration of sensory block were calculated as the time required for thermal latency to return to 7 seconds (halfway between the baseline and maximal latencies). The duration of motor block was defined as the time it took for the weight-bearing to return to halfway between normal and maximal block.

[8] = cited from earlier work
[9] = tested on: sciatic nerves and surrounding tissues; conditions: rat, in vivo
[10] = first 24 h, Lipo-Ph versus Lipo
[11] = payload from aromatized liposomes, 37° C.
[12] = payload in aromatized liposomes containing Ph-DPPC (Lipo-Ph)

1-palmitoyl-2-(16-coumarin)palmitoyl-sn-glycero-3-phosphocholine [CM-DPPC]
phase transition temperature (Tm) [1]: 66.1 °C

CCCCN1CCCCC1C(=O)Nc1c(C)cccc1C (stereo not shown) [Bup, bupivacaine hydrochloride]
logP (physchem): -0.27
Cumulative release in first 24 h, Lipo [2]: 70.7 ± 1.9%
Decrease in release [2, 10]: 47.7%
Cumulative release in first 24 h, Lipo-Ph [2, 11]: 37.0 ± 2.7%
Drug loading, Lipo [3]: 3.5 ± 0.7%
Increase in loading ([3]; Lipo-Ph versus Lipo): 60.0%
Drug loading, Lipo-Ph [3, 12]: 5.6 ± 0.8%

COc1cccc2c1C(=O)c1c(O)c3c(c(O)c1C2=O)C[C@@](O)(C(=O)CO)C[C@@H]3O[C@H]1C[C@H](N)[C@H](O)[C@H](C)O1 [Dox, doxorubicin hydrochloride]
logP (physchem): -0.22
Cumulative release in first 24 h, Lipo [2]: 26.8 ± 1.1%
Decrease in release [2, 10]: 34.3%
Cumulative release in first 24 h, Lipo-Ph [2, 11]: 17.6 ± 1.0%
Drug loading, Lipo [3]: 0.8 ± 0.1%
Increase in loading ([3]; Lipo-Ph versus Lipo): 30.4%
Drug loading, Lipo-Ph [3, 12]: 1.1 ± 0.1%

CCCCCCCCCCCCCCCC(=O)OC[C@H](COP(=O)([O-])OCC[N+](C)(C)C)OC(=O)CCCCCCCCCCCCCCCOc1ccccc1 [Ph-DPPC, 1-palmitoyl-2-(16-phenoxy)palmitoyl-sn-glycero-3-phosphocholine]
phase transition temperature (Tm) [1]: 47.4 °C

Oc1ccccc1 [Phenol, phenol]
cytotoxicity, C2C12 (C2C12 mouse myoblasts): intrinsically toxic
cytotoxicity, PC12 [4]: intrinsically toxic

CCN(CC)c1ccc2c(-c3ccc(S(=O)(=O)O)cc3S(=O)(=O)[O-])c3ccc(=[N+](CC)CC)cc-3oc2c1 [SRho, sulforhodamine B]
Cumulative release in first 24 h, Lipo [2]: 12.2 ± 0.5%
Decrease in release [2, 10]: 51.6%
Cumulative release in first 24 h, Lipo-Ph [2, 11]: 5.9 ± 0.7%
time within which free dye was released ([2]; unencapsulated SRho in the release set-up): ≤ 6 h
log P (octanol-water partition coefficient) [5]: −0.53
Drug loading, Lipo [3]: 2.6 ± 0.3%
Increase in loading ([3]; Lipo-Ph versus Lipo): 19.2%
Drug loading, Lipo-Ph [3, 12]: 3.1 ± 0.2%

tetrodotoxin [TTX]
Duration of nerve block (sciatic nerve [6]): 2.5 ± 0.6 h and 2.5 h
nerve block (sciatic nerve [6]): did not induce detectable nerve block
sensory nerve block (sciatic nerve [6]): no detectable block
Cumulative release in first 24 h, Lipo [2]: 17.1 ± 0.3%
Cumulative release in first 24 h, Lipo-Ph [2]: 11.3 ± 0.4%
Decrease in release [2]: 34.0%
TTX released after 8 hours [2]: More than 95%
difference between the duration of sensory and motor nerve block (sciatic nerve [7]): no statistically significant difference
log P (octanol-water partition coefficient) [5]: 0.13
Log P [8]: −6.2
Inflammation Scores, Day 4 [9]: 0
Inflammation Scores, Day 14 [9]: 0 (0-0)
Myotoxicity Scores, Day 4 [9]: 0
Myotoxicity Scores, Day 14 [9]: 0
Drug loading, Lipo [3]: 0.11 ± 0.01%
Drug loading, Lipo-Ph [3]: 0.13 ± 0.01%
Increase in loading [3]: 25.5%
